This is an account of results in patent US20260022143A1, “Cyclic Peptide Inhibitors of IL-23” (JANSSEN PHARMACEUTICA NV, priority 2022, published 2026).

Each structure is given as a SMILES string. Counter-ions that a name gives are not always drawn. Starred links: 1 amine or outer side, 2 acyl side, 3 side chain; linkers in the order of their positions; H or OH if unused. Positions of bridges follow the written chain, without caps; N, C: chain ends. Non-standard residues stand in square brackets, D forms with d. Residues, ends and D or L forms follow the SMILES beside them. *: point of attachment. Me3N+(CH2)2O(CH2)2O(CH2)2CO = C[N+](C)(C)CCOCCOCCC(=O)*; CH2CH2OCH2CH2OCH2CH2NMe3+ = C[N+](C)(C)CCOCCOCC*; Trp(7-Me) = Cc1cccc2c(C[C@H](N)C(=O)O)c[nH]c12; Hexanoyl(6-NMe3+) = C[N+](C)(C)CCCCCC(=O)*; dLys(Me3) = C[N+](C)(C)CCCC[C@@H](N)C(=O)O; X15 = CC(=O)N(C)C[C@H](N[*:1])C(=O)[*:2]; 3Pal(5-Me) = Cc1cncc(C[C@H](N)C(=O)O)c1; 2Nal = N[C@@H](Cc1ccc2ccccc2c1)C(=O)O; 3Pal = N[C@@H](Cc1cccnc1)C(=O)O; Lys(Me) = CNCCCC[C@H](N)C(=O)O; Pen = CC(C)(S)[C@H](N)C(=O)O; Thp = NC1(C(=O)O)CCOCC1; X3 = C[N+](C)(C)CCCCC*; Me2NCH2CH2 = CN(C)CC*; Tfa = O=C(C(F)(F)F)*; Sar = CNCC(=O)O

One data set concerns the target T1, IL-23R (Homo sapiens, UniProt Q5VWK5).
T1 construct: host or cells: HEK293
T1 sequence (Q5VWK5 24-629): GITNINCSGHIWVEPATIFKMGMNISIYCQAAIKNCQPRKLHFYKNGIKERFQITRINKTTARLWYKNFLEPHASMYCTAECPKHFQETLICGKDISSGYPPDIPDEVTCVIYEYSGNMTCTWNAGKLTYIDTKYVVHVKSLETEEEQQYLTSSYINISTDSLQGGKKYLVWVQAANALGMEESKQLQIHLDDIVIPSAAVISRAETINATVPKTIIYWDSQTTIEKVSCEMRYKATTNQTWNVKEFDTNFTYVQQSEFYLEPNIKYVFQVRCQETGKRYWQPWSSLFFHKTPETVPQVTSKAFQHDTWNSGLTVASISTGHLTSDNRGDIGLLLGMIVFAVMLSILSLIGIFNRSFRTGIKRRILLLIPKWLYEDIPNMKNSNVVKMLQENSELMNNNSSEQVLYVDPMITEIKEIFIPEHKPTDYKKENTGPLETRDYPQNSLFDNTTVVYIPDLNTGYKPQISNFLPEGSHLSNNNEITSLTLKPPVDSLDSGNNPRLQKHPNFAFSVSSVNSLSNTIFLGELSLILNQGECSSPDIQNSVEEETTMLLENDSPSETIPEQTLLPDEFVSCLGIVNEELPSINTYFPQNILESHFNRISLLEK
Nature of the data set: IL23R Reporter Assay. Format: cell-based. Conditions: HEK293 cells containing IL-23R, IL-12RP1 and STAT-inducible firefly luciferase reporter; 10 ng/mL IL-23 (EC90); 5 h at 37° C.; read-out: IL23R Reporter Assay. On the technique in general: Reporter assays use an easily measured gene product as a stand-in for the process of interest.

Data set [1] in a line: Exposed Polar Surface Area (EPSA). It counts as physicochemical. Conditions: SFC on Chirex 3014 column; sample 1 mM DMSO stock; read-out: EPSA. The method in brief:
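Chirex 3014 column, 35 °C, 4 mL/min; CO2/MeOH + 20 mM NH4 formate, 5→60% modifier at 20%/min. UV/MS detection. EPSA (Å^2) from retention time vs 8-standard calibration line; duplicates; 1 mM DMSO stock injected undiluted.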

`CC(=O)N[C@H](COCCOCC[N+](C)(C)C)C(=O)N[C@@H]1C(=O)N[C@@H](CC(=O)N(C)C)C(=O)N[C@@H]([C@@H](C)O)C(=O)N[C@@H](Cc2c[nH]c3c(C)cccc23)C(=O)N[C@@H](CCCCN(C)C(C)=O)C(=O)N[C@H](C(=O)N[C@@H](Cc2ccc(OCCOCCOCC[N+](C)(C)C)cc2)C(=O)N[C@@H](Cc2ccc3ccccc3c2)C(=O)NC2(C(=O)N[C@@H](CCCCN(C)C(C)=O)C(=O)N[C@@H](CC(N)=O)C(=O)N[C@@H](Cc3cccnc3)C(=O)N(C)CC(=O)N(C)C)CCOCC2)C(C)(C)SSC1(C)C` [compound 232, MeCO-APEG2ser-Pen(3)-N(N(Me)2)-T-7MeW-K(NMeAc)-Pen(3)-APEG3F-2Nal-THP-K(NMeAc)-N-3Pya-Sar-CON(Me)2]: the IC50 on IL-23R worked out at 3.4 nM. The EPSA in data set [1] turned out to be 140 A^2.

`CC(=O)NCCCC[C@@H]1NC(=O)[C@H](Cc2c[nH]c3c(C)cccc23)NC(=O)[C@H]([C@@H](C)O)NC(=O)[C@H](CC(N)=O)NC(=O)[C@@H](NC(=O)[C@@H](CCCC[N+](C)(C)C)NC(C)=O)C(C)(C)SSC(C)(C)[C@@H](C(=O)N[C@@H](Cc2ccc(OCCCCC[N+](C)(C)C)cc2)C(=O)N[C@@H](Cc2ccc3ccccc3c2)C(=O)NC2(C(=O)N[C@@H](CCC(=O)O)C(=O)N[C@@H](CC(N)=O)C(=O)N[C@@H](Cc3cncc(C)c3)C(=O)N(C)CC(N)=O)CCOCC2)NC1=O` [compound 534, MeCO-k(Me)3-Pen(3)-N-T-7MeW-K(Ac)-Pen(3)-TMAPF-2Nal-THP-E-N-5MePyridinAla-Sar-CONH2] (Ac-[dLys(Me3)][Pen]NT[Trp(7-Me)]K(Ac)[Pen]Y(X3)[2Nal][Thp]EN[3Pal(5-Me)][Sar]-NH2; disulfide 2-7): the IC50 on IL-23R came to 2.1 nM. The EPSA in data set [1] came out at 172 A^2.

Turning to `CCCCCCCCCCCC(=O)N[C@@H](CCC(=O)NCCOCCOCC(=O)NCCOCCOCC(=O)NCCOCCOCC(=O)NCCOCCOCC(=O)NCCCC[C@H](NC(=O)COCCOCCNC(=O)COCCOCCNC(=O)COCCOCCNC(=O)COCCOCCNC(=O)CC[C@H](NC(=O)CCCCCCCCCCC)C(=O)O)C(=O)NCCOCCOCC(=O)NCCOCCOCC(=O)NCCCC[C@@H](C(N)=O)N(C)C(=O)[C@H](Cc1cccnc1)NC(=O)[C@H](CC(N)=O)NC(=O)[C@H](CCCCN(C)C(C)=O)NC(=O)C1(NC(=O)[C@H](Cc2ccc3ccccc3c2)NC(=O)[C@H](Cc2ccc(OCCCCC[N+](C)(C)C)cc2)NC(=O)[C@H]2NC(=O)[C@H](CCCCNC(C)=O)NC(=O)[C@H](Cc3c[nH]c4c(C)cccc34)NC(=O)[C@H]([C@@H](C)O)NC(=O)[C@H](CC(=O)N(C)C)NC(=O)[C@@H](NC(=O)CCOCCOCC[N+](C)(C)C)C(C)(C)SSC2(C)C)CCOCC1)C(=O)O` [compound 409, cPEG3aCO-Pen(3)-N(N(Me)2)-T-7MeW-K(Ac)-Pen(3)-TMAPF-2Nal-THP-K(NMeac)-N-3Pya-NMeK(PEG2PEG2K(PEG2PEG2PEG2PEG2gEC12)2)-CONH2], on IL-23R, the IC50 was 47 nM. The EPSA in data set [1] is 198 A^2.

As to `CC(=O)N(C)CCCC[C@@H]1NC(=O)[C@H](Cc2c[nH]c3c(C)cccc23)NC(=O)[C@H]([C@@H](C)O)NC(=O)[C@H](CC(=O)N(C)C)NC(=O)[C@@H](NC(=O)CCOCCOCC[N+](C)(C)C)C(C)(C)SSC(C)(C)[C@@H](C(=O)N[C@@H](Cc2ccc(OCCOCCOCC[N+](C)(C)C)cc2)C(=O)N[C@@H](Cc2ccc3ccccc3c2)C(=O)NC2(C(=O)N[C@@H](CN(C)C(C)=O)C(=O)N[C@@H](CC(N)=O)C(=O)N[C@@H](Cc3cccnc3)C(=O)N(C)CC(=O)N(C)C)CCOCC2)NC1=O` [compound 419, cPEG3aCO-Pen(3)-N(N(Me)2)-T-7MeW-K(NMeAc)-Pen(3)-APEG3F-2Nal-THP-Dap(NMeAc)-N-3Pya-Sar-CON(Me)2] ({Me3N+(CH2)2O(CH2)2O(CH2)2CO}-[Pen]D(NMe2)T[Trp(7-Me)][Lys(Me)](Ac)[Pen]Y(CH2CH2OCH2CH2OCH2CH2NMe3+)[2Nal][Thp][X15]N[3Pal][Sar]-NMe2; disulfide 1-6), on IL-23R, the IC50 came to 3 nM. In addition, the EPSA in data set [1] is 156 A^2.

Turning to `Cc1cccc2c(C[C@@H]3NC(=O)[C@H]([C@@H](C)O)NC(=O)[C@H](CC(=O)N(C)C)NC(=O)[C@@H](NC(=O)[C@@H](CCCCNC(=O)CCCCC[N+](C)(C)C)NC(=O)C(F)(F)F)C(C)(C)SSC(C)(C)[C@@H](C(=O)N[C@@H](Cc4ccc(OCCN(C)C)cc4)C(=O)N[C@@H](Cc4ccc5ccccc5c4)C(=O)NC4(C(=O)N[C@@H](CCC(=O)N(C)C)C(=O)N[C@@H](CC(N)=O)C(=O)N[C@@H](Cc5cccnc5)C(=O)N(C)CC(=O)N(C)C)CCOCC4)NC(=O)[C@H](CCC(=O)N(C)C)NC3=O)c[nH]c12` [compound 96, CF3CO-k(5cpa)-Pen(3)-N(N(Me)2)-T-7MeW-Q(N(Me)2)-Pen(3)-AEF(N(Me)2)-2Nal-THP-Q(N(Me)2)-N-3Pya-Sar-CON(Me)2] (Tfa-[dK](Hexanoyl(6-NMe3+))[Pen]D(NMe2)T[Trp(7-Me)]E(NMe2)[Pen]Y(Me2NCH2CH2)[2Nal][Thp]E(NMe2)N[3Pal][Sar]-NMe2; disulfide 2-7), the IC50 on IL-23R stood at 4.6 nM. Also, the EPSA in data set [1] turned out to be 139 A^2.

As for `CC(=O)N(C)CCCC[C@@H]1NC(=O)[C@H](Cc2c[nH]c3c(C)cccc23)NC(=O)[C@H]([C@@H](C)O)NC(=O)[C@H](CC(=O)N(C)C)NC(=O)[C@@H](NC(=O)CCOCCOCC[N+](C)(C)C)C(C)(C)SSC(C)(C)[C@@H](C(=O)N[C@@H](Cc2ccc(OCCCCC[N+](C)(C)C)cc2)C(=O)N[C@@H](Cc2ccc3ccccc3c2)C(=O)NC2(C(=O)N[C@@H](CCCCN(C)C(C)=O)C(=O)N[C@@H](CC(N)=O)C(=O)N[C@@H](Cc3cccnc3)C(=O)N(C)CC(=O)N(C)C)CCOCC2)NC1=O` [compound 484, cPEG3aCO-C(3)-N(N(Me)2)-T-7MeW-K(NMeAc)-Pen(3)-TMAPF-2Nal-THP-K(NMeAc)-N-3Pya-Sar-CON(Me)2] ({Me3N+(CH2)2O(CH2)2O(CH2)2CO}-[Pen]D(NMe2)T[Trp(7-Me)][Lys(Me)](Ac)[Pen]Y(X3)[2Nal][Thp][Lys(Me)](Ac)N[3Pal][Sar]-NMe2; disulfide 1-6), the IC50 on IL-23R came out at 3.1 nM. In addition, the EPSA in data set [1] turned out to be 163 A^2.

On to `CC(=O)N(C)CCCC[C@H](NC(=O)[C@H](Cc1ccccc1)NC(=O)[C@H](Cc1ccc2ccccc2c1)NC(=O)[C@H](Cc1ccc(OCCOCCOCC[N+](C)(C)C)cc1)NC(=O)[C@H]1NC(=O)[C@H](Cc2ccccc2)NC(=O)[C@H](Cc2c[nH]c3c(C)cccc23)NC(=O)[C@H]([C@@H](C)O)NC(=O)[C@H](Cc2ccccc2)NC(=O)[C@@H](NC(=O)CCOCCOCC[N+](C)(C)C)C(C)(C)SSC1(C)C)C(=O)N[C@@H](CC(N)=O)C(=O)N[C@@H](Cc1cccnc1)C(=O)N(C)CC(=O)N(C)C` [compound 464, cPEG3aCO-Pen(3)-F-T-7MeW-F-Pen(3)-APEG3f-2Nal-F-K(NMeAc)-N-3Pya-Sar-CON(Me)2] ({Me3N+(CH2)2O(CH2)2O(CH2)2CO}-[Pen]FT[Trp(7-Me)]F[Pen]Y(CH2CH2OCH2CH2OCH2CH2NMe3+)[2Nal]F[Lys(Me)](Ac)N[3Pal][Sar]-NMe2; disulfide 1-6), for which the IC50 at IL-23R stood at 30 nM. Further, the EPSA in data set [1] was found to be 160 A^2.

For `CC(=O)N(C)CCCC[C@@H]1NC(=O)[C@H](Cc2c[nH]c3c(C)cccc23)NC(=O)[C@H]([C@@H](C)O)NC(=O)[C@H](CC(=O)N(C)C)NC(=O)[C@@H](NC(=O)CCOCCOCC[N+](C)(C)C)C(C)(C)SSC(C)(C)[C@@H](C(=O)N[C@@H](Cc2ccc(OCCOCCOCC[N+](C)(C)C)cc2)C(=O)N[C@@H](Cc2ccc3ccccc3c2)C(=O)NC2(C(=O)N[C@@H](CC(C)C)C(=O)N[C@@H](CC(N)=O)C(=O)N[C@@H](Cc3cccnc3)C(=O)N(C)CC(=O)N(C)C)CCOCC2)NC1=O` [compound 467, cPEG3aCO-Pen(3)-N(N(Me)2)-T-7MeW-K(NMeAc)-Pen(3)-APEG3F-2Nal-THP-L-N-3Pya-Sar-CON(Me)2] ({Me3N+(CH2)2O(CH2)2O(CH2)2CO}-[Pen]D(NMe2)T[Trp(7-Me)][Lys(Me)](Ac)[Pen]Y(CH2CH2OCH2CH2OCH2CH2NMe3+)[2Nal][Thp]LN[3Pal][Sar]-NMe2; disulfide 1-6), the IC50 on IL-23R was 1.2 nM. In addition, the EPSA in data set [1] turned out to be 154 A^2.

Turning to `CC(=O)NCCCC[C@@H]1NC(=O)[C@H](Cc2c[nH]c3c(C)cccc23)NC(=O)[C@H]([C@@H](C)O)NC(=O)[C@H](CC(N)=O)NC(=O)[C@@H](NC(=O)[C@@H](CCCNC(=N)N)NC(C)=O)C(C)(C)SSC(C)(C)[C@@H](C(=O)N[C@@H](Cc2ccc(OCCCCC[N+](C)(C)C)cc2)C(=O)N[C@@H](Cc2ccc3ccccc3c2)C(=O)NC2(C(=O)N[C@@H](CCC(=O)O)C(=O)N[C@@H](CC(N)=O)C(=O)N[C@@H](Cc3cncc(C)c3)C(=O)N(C)CC(N)=O)CCOCC2)NC1=O` [compound 543, MeCO-r-Pen(3)-N-T-7MeW-K(Ac)-Pen(3)-TMAPF-2Nal-THP-E-N-5MePyridinAla-Sar-CONH2] (Ac-[dR][Pen]NT[Trp(7-Me)]K(Ac)[Pen]Y(X3)[2Nal][Thp]EN[3Pal(5-Me)][Sar]-NH2; disulfide 2-7), on IL-23R, the IC50 worked out at 2 nM. Besides, the EPSA in data set [1] amounted to 179 A^2.
